Results reported in the supplement of paper PMC10733146.

How the values were obtained:
Assay in all cases: viability relative to DMSO control (fraction); higher = less drug effect (more viable cells)
Settings in all cases: 48 h
Midostaurin hydrate = compound: CO[C@@H]1[C@H](N(C)C(=O)c2ccccc2)C[C@H]2O[C@]1(C)n1c3ccccc3c3c4c(c5c6ccccc6n2c5c31)C(=O)NC4 [Midostaurin hydrate]
Procedure, shortened: (§1)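 Viability was quantified by CellTiter-Glo luminescence and related to the median of 16 inner DMSO wells. Before that, primary mononuclear tumour cells, fresh or cryopreserved and Ficoll-isolated from blood or bone marrow or prepared from processed lymph node, were plated at 4 × 10^4 cells per well in 384-well plates containing pre-plated compounds at five concentrations, one well each. Plates were incubated in RPMI-1640 with penicillin/streptomycin, L-glutamine and human serum at 37 °C and 5% CO2 for 48 h.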

Venetoclax = compound: CC1(C)CCC(CN2CCN(c3ccc(C(=O)NS(=O)(=O)c4ccc(NCC5CCOCC5)c([N+](=O)[O-])c4)c(Oc4cnc5[nH]ccc5c4)c3)CC2)=C(c2ccc(Cl)cc2)C1 [Venetoclax]
Procedure, shortened: as §1

[1] = compound: C[C@H]1C[C@@H](n2c(Nc3ccc(OC(F)(F)F)cc3)nc3cc(CCC(=O)O)ccc32)CC(C)(C)C1
Procedure, shortened: as §1

SGC 0946 = compound: CC(C)N(CCCNC(=O)Nc1ccc(C(C)(C)C)cc1)C[C@H]1O[C@@H](n2cc(Br)c3c(N)ncnc32)[C@H](O)[C@@H]1O [SGC 0946]
Procedure, shortened: as §1

CPI-169 = compound: CCS(=O)(=O)N1CCC([C@@H](C)n2c(C)c(C(=O)NCc3c(OC)cc(C)[nH]c3=O)c3ccccc32)CC1 [CPI-169]
Procedure, shortened: as §1

Vindesine = compound: CC[C@]1(O)C[C@@H]2CN(CCc3c([nH]c4ccccc34)[C@@](C(=O)OC)(c3cc4c(cc3OC)N(C)[C@H]3[C@@](O)(C(N)=O)[C@H](O)[C@]5(CC)C=CCN6CC[C@]43[C@@H]65)C2)C1 [Vindesine]
Procedure, shortened: as §1

Idasanutlin (RS7388) = compound: COc1cc(C(=O)O)ccc1NC(=O)[C@@H]1N[C@@H](CC(C)(C)C)[C@](C#N)(c2ccc(Cl)cc2F)[C@H]1c1cccc(Cl)c1F [Idasanutlin (RS7388)]
Procedure, shortened: as §1

Everolimus = compound: CO[C@H]1C[C@@H]2CC[C@@H](C)[C@@](O)(O2)C(=O)C(=O)N2CCCC[C@H]2C(=O)O[C@H]([C@H](C)C[C@@H]2CC[C@@H](OCCO)[C@H](OC)C2)CC(=O)[C@H](C)/C=C(\C)[C@@H](O)[C@@H](OC)C(=O)[C@H](C)C[C@H](C)/C=C/C=C/C=C/1C [Everolimus]
Procedure, shortened: as §1

Entospletinib = compound: c1cn2cc(-c3ccc4cn[nH]c4c3)nc(Nc3ccc(N4CCOCC4)cc3)c2n1 [Entospletinib]
Procedure, shortened: as §1

[2] = compound: CCc1ccc(/C=C2/SC(=S)NC2=O)cc1
Procedure, shortened: as §1

[3] = compound: C[C@H](NC(=O)CCC(F)(F)F)C(=O)N[C@@H]1C(=O)N(CCO)c2ncccc2-c2ccccc21
Procedure, shortened: as §1

EPZ-6438 = compound: CCN(c1cc(-c2ccc(CN3CCOCC3)cc2)cc(C(=O)NCc2c(C)cc(C)[nH]c2=O)c1C)C1CCOCC1 [EPZ-6438]
Procedure, shortened: as §1

Tofacitinib = compound: C[C@@H]1CCN(C(=O)CC#N)C[C@@H]1N(C)c1ncnc2[nH]ccc12 [Tofacitinib]
Procedure, shortened: as §1

primary AML patient cells (S009) showed a viability (Midostaurin hydrate; 0.024 µM) of 0.972, a viability (Midostaurin hydrate; 0.12 µM) of 0.97 and a viability (Midostaurin hydrate; 0.6 µM) of 1.03. The viability (Midostaurin hydrate; 3 µM) was 0.99, the viability (Midostaurin hydrate; 15 µM) was 0.934 and the viability (Venetoclax; 0.00064 µM) was 0.752. The viability (Venetoclax; 0.0032 µM) was 0.693, the viability (Venetoclax; 0.016 µM) was 0.644 and the viability (Venetoclax; 0.08 µM) was 0.547. For the same test system, the viability (Venetoclax; 0.4 µM) was 0.564, the viability ([1]; 0.024 µM) was 0.953 and the viability ([1]; 0.12 µM) was 0.99. For the same test system, the viability ([1]; 0.6 µM) was 0.974, the viability ([1]; 3 µM) was 0.93 and the viability ([1]; 15 µM) was 0.911. For the same test system, the viability (SGC 0946; 0.024 µM) was 0.93, the viability (SGC 0946; 0.12 µM) was 0.949 and the viability (SGC 0946; 0.6 µM) was 0.929. The viability (SGC 0946; 3 µM) was 0.834, the viability (SGC 0946; 15 µM) was 0.627 and the viability (CPI-169; 0.024 µM) was 0.909. The viability (CPI-169; 0.12 µM) was 0.945, the viability (CPI-169; 0.6 µM) was 0.972 and the viability (CPI-169; 3 µM) was 0.931. For the same test system, the viability (CPI-169; 15 µM) was 0.954, the viability (Vindesine; 0.016 µM) was 0.65 and the viability (Vindesine; 0.08 µM) was 0.592. The viability (Vindesine; 0.4 µM) was 0.571, the viability (Vindesine; 2 µM) was 0.503 and the viability (Vindesine; 10 µM) was 0.424. It also gave a viability (Idasanutlin (RS7388); 0.032 µM) of 0.771, a viability (Idasanutlin (RS7388); 0.16 µM) of 0.667 and a viability (Idasanutlin (RS7388); 0.8 µM) of 0.594. For the same test system, the viability (Idasanutlin (RS7388); 4 µM) was 0.565, the viability (Idasanutlin (RS7388); 20 µM) was 0.533 and the viability (Everolimus; 0.0032 µM) was 0.82. The viability (Everolimus; 0.016 µM) was 0.871, the viability (Everolimus; 0.08 µM) was 0.792 and the viability (Everolimus; 0.4 µM) was 0.779. The viability (Everolimus; 2 µM) was 0.812, the viability (Entospletinib; 0.024 µM) was 0.952 and the viability (Entospletinib; 0.12 µM) was 1.14. It also gave a viability (Entospletinib; 0.6 µM) of 1.15, a viability (Entospletinib; 3 µM) of 1.12 and a viability (Entospletinib; 15 µM) of 0.876. The viability ([2]; 0.024 µM) was 0.705, the viability ([2]; 0.12 µM) was 0.818 and the viability ([2]; 0.6 µM) was 0.81. The viability ([2]; 3 µM) was 0.812, the viability ([2]; 15 µM) was 0.848 and the viability ([3]; 0.016 µM) was 1.01. It also gave a viability ([3]; 0.08 µM) of 1.02, a viability ([3]; 0.4 µM) of 0.933 and a viability ([3]; 2 µM) of 0.952. For the same test system, the viability ([3]; 10 µM) was 0.953, the viability (EPZ-6438; 0.024 µM) was 1.04 and the viability (EPZ-6438; 0.12 µM) was 1.08. For the same test system, the viability (EPZ-6438; 0.6 µM) was 1.12, the viability (EPZ-6438; 3 µM) was 1.06 and the viability (EPZ-6438; 15 µM) was 0.96. The viability (Tofacitinib; 0.024 µM) was 0.942, the viability (Tofacitinib; 0.12 µM) was 0.881 and the viability (Tofacitinib; 0.6 µM) was 0.868. For the same test system, the viability (Tofacitinib; 3 µM) was 0.944 and the viability (Tofacitinib; 15 µM) was 1.03.

Test System primary MCL patient cells (S063) has a viability (Midostaurin hydrate; 0.024 µM) of 1.02, a viability (Midostaurin hydrate; 0.12 µM) of 1.07 and a viability (Midostaurin hydrate; 0.6 µM) of 1.11. For the same test system, the viability (Midostaurin hydrate; 3 µM) was 1.08, the viability (Midostaurin hydrate; 15 µM) was 0.2 and the viability (Venetoclax; 0.00064 µM) was 1.06. For the same test system, the viability (Venetoclax; 0.0032 µM) was 0.901, the viability (Venetoclax; 0.016 µM) was 0.804 and the viability (Venetoclax; 0.08 µM) was 0.474. The viability (Venetoclax; 0.4 µM) was 0.238, the viability ([1]; 0.024 µM) was 0.864 and the viability ([1]; 0.12 µM) was 1.16. It also gave a viability ([1]; 0.6 µM) of 1.01, a viability ([1]; 3 µM) of 0.902 and a viability ([1]; 15 µM) of 0.94. For the same test system, the viability (SGC 0946; 0.024 µM) was 0.916, the viability (SGC 0946; 0.12 µM) was 0.949 and the viability (SGC 0946; 0.6 µM) was 0.914. For the same test system, the viability (SGC 0946; 3 µM) was 0.888, the viability (SGC 0946; 15 µM) was 0.718 and the viability (CPI-169; 0.024 µM) was 1. It also gave a viability (CPI-169; 0.12 µM) of 1.1, a viability (CPI-169; 0.6 µM) of 0.963 and a viability (CPI-169; 3 µM) of 1.06. For the same test system, the viability (CPI-169; 15 µM) was 0.959, the viability (Vindesine; 0.016 µM) was 0.731 and the viability (Vindesine; 0.08 µM) was 0.182. It also gave a viability (Vindesine; 0.4 µM) of 0.175, a viability (Vindesine; 2 µM) of 0.122 and a viability (Vindesine; 10 µM) of 0.108. The viability (Idasanutlin (RS7388); 0.032 µM) was 0.767, the viability (Idasanutlin (RS7388); 0.16 µM) was 0.798 and the viability (Idasanutlin (RS7388); 0.8 µM) was 0.485. For the same test system, the viability (Idasanutlin (RS7388); 4 µM) was 0.272, the viability (Idasanutlin (RS7388); 20 µM) was 0.15 and the viability (Everolimus; 0.0032 µM) was 1.02. For the same test system, the viability (Everolimus; 0.016 µM) was 0.958, the viability (Everolimus; 0.08 µM) was 0.959 and the viability (Everolimus; 0.4 µM) was 0.921. For the same test system, the viability (Everolimus; 2 µM) was 0.958, the viability (Entospletinib; 0.024 µM) was 0.995 and the viability (Entospletinib; 0.12 µM) was 0.948. The viability (Entospletinib; 0.6 µM) was 0.892, the viability (Entospletinib; 3 µM) was 0.998 and the viability (Entospletinib; 15 µM) was 0.952. For the same test system, the viability ([2]; 0.024 µM) was 0.863, the viability ([2]; 0.12 µM) was 0.924 and the viability ([2]; 0.6 µM) was 0.912. It also gave a viability ([2]; 3 µM) of 0.901, a viability ([2]; 15 µM) of 0.903 and a viability ([3]; 0.016 µM) of 1.1. The viability ([3]; 0.08 µM) was 1.11, the viability ([3]; 0.4 µM) was 1.01 and the viability ([3]; 2 µM) was 1.04. It also gave a viability ([3]; 10 µM) of 0.885, a viability (EPZ-6438; 0.024 µM) of 1.04 and a viability (EPZ-6438; 0.12 µM) of 0.992. It also gave a viability (EPZ-6438; 0.6 µM) of 1.04, a viability (EPZ-6438; 3 µM) of 1.01 and a viability (EPZ-6438; 15 µM) of 0.944. The viability (Tofacitinib; 0.024 µM) was 1.02, the viability (Tofacitinib; 0.12 µM) was 0.945 and the viability (Tofacitinib; 0.6 µM) was 1.05. It also gave a viability (Tofacitinib; 3 µM) of 1.14 and a viability (Tofacitinib; 15 µM) of 1.21.
